How the values were obtained:
[1] = system: human mitochondrial F1/F0 ATPase (Complex V); test: ATPase activity of immunocaptured F1/F0 ATPase, 96-well; type: biochemical
Procedure: Solubilization. Samples were thawed and placed in 25 mM HEPES pH 7.5 (to dissociate F1F0/IF1 interactions) or 10 mM […] (Anatrace) pH 6.5 (to retain F1F0/IF1 interactions), containing 0.4% (w/v) […], and the protease inhibitors leupeptin (0.5 μg/ml), pepstatin (0.5 μg/ml) and PMSF (1 mM). Mitochondria were solubilized at 5 mg/ml and whole cells were solubilized at 2×10^7 cells/ml. Samples were mixed well and then kept on ice for 30 minutes with occasional agitation. Insoluble material was then removed by centrifugation at 16,000×g for 20 minutes at 4° C.
Immunocapture. Assays were run in 96-well plates (Falcon Probind™) using 100 μl/well. […] To control for non-specific adsorption of ATPase, a non-specific mouse monoclonal antibody was used as a null capture mAb. Wells were then loaded with solubilized test samples diluted in TBS with 2.5% BSA, incubated for 2 hours at room temperature and then washed 4 times with TBS.
ATPase activity. ATPase reaction buffer (25 mM HEPES pH 7.5 or 10 mM MOPS pH 6.5, with 25 mM KCl, 5 mM MgCl2, 5 mM KCN and 2 mM ATP) was added at 100 μl/well and incubated for 3 hours at 37° C. The reaction was stopped and free Pi generated by ATP hydrolysis was detected essentially as described by Walker et al. (Meth. Enzymol., 260: 163-190, 1995) by addition of 0.5% ammonium molybendate in 0.7 M H2SO4 (42 μl/well) followed by 10% ascorbic acid (4 μl/well). After incubation for 30 minutes at room temperature to allow color development, absorbance was measured at 690 nm.
IF1 Stripping Conditions. IF1 was dissociated from previously immunocaptured IF1/F1F0 complexes by exposure to IF1 stripping buffer (30 mM Tris-sulfate pH 8, 250 mM KCl, 2 mM EDTA, 75 mM sucrose) for 30 minutes at 37° C. (Van Raaij et al., Biochem. 35: 15618-15625, 1996). The wells were then washed with either a pH 7.5 wash buffer (TBS) or a pH 6.5 wash buffer (10 mM MOPS pH 6.5, 150 mM NaCl and 1 mM MgCl2), and ATPase activity measured at either pH 7.5 or pH 6.5 as described above.
IF1 Addition Conditions. Recombinant human IF1 was obtained by PCR-based amplification of the appropriate gene from a human heart CDNA library (Clontech), cloning into pET15b (Novagen), transformation of E. coli and overexpression and purification of the His-tagged protein on a Ni column by standard protocols (Novagen). Isolated protein was diluted in pH 6.5 wash buffer (as described above) containing 1 mM ATP and incubated with previously immunocaptured F1F0. The wells were then washed with pH 6.5 wash buffer and ATPase activity measured at pH 6.5 as described above.

Complex V = biological target: T1, Complex V (Homo sapiens, UniProt P00846+P05496+P06576+P25705); test: Complex V activity dipstick; type: biochemical; details: normal fibroblast Complex V (FIG. 30)
T1 construct: tissue Analytical Biological Services, Inc; host or cells: human heart ventricle mitochondria (A10, A12); MRC5, Rho0-MRC5 and GM00028 fibroblasts (A12); normal and Rho0 human fibroblast mitochondria (A19)
Procedure: Mitochondria (human heart, human fibroblast or bovine heart) were solubilized at 5 mg/ml mitochondrial protein, 1% wt/vol lauryl maltoside, 100 mM NaCl, 25 mM HEPES pH 7.5, and the protease inhibitors pepstatin (0.5 μg/ml), leupeptin (0.5 μg/ml) and PMSF (1 mM). The samples were incubated at 4° C. for 30 minutes and the insoluble material removed by centrifugation at 16,000×g for 20 minutes. Solubilized mitochondria were diluted to the desired concentration in 150 mM NaCl, 50 mM Tris-HCl, pH 7.5 containing 2.5% bovine serum albumin as a blocking and stabilization agent.
After the entire sample wicked up into the nitrocellulose (approximately 15 minutes), the stick was transferred to a second well containing 50 μl of wash buffer (150 mM NaCl, 50 mM Tris-HCl, pH 7.5), which was allowed to wick up the stick (approximately 15 minutes). The absorbent pad was then removed and the entire dipstick incubated in a tube containing 3 ml wash buffer for approximately 15 minutes. The washed dipstick (with the immunocaptured OXPHOS complex of interest) was then transferred to the appropriate enzyme reaction buffer to reveal enzyme activity as described below. […]

CC[C@H]1/C=C/C=C/C[C@@H](C)[C@H](O)[C@@](C)(O)C(=O)[C@@H](C)[C@H](O)[C@@H](C)C(=O)[C@@H](C)[C@H](O)[C@@H](C)/C=C/C(=O)O[C@@H]2[C@H](C)[C@H](CC1)O[C@]1(CC[C@H](C)[C@H](C[C@@H](C)O)O1)[C@H]2C [oligomycin]
oligomycin sensitivity of F1/F0 ATPase immunocaptured from Rho0 cell mitochondria ([1]; Rho0 fibroblasts, 1.5 μg/ml oligomycin (FIG. 8)): oligomycin insensitive
oligomycin sensitivity of immunocaptured enzyme ([1]; cultured fibroblast extract, 1.5 μg/ml oligomycin (FIG. 7B)): more than 90%
inhibition of ATPase activity of immunocaptured human F1/F0 ATPase ([1]; human heart mitochondria, 1.5 μg/ml oligomycin (FIG. 5)): more than 90%
inhibition of captured F1/F0 ATPase ([1]; mAb 12F4AD8AF8 directly adsorbed to the plate): could not be inhibited
inhibition of captured F1/F0 ATPase ([1]; mAb 12F4AD8AF8 oriented on a layer of goat-anti-mouse IgG): completely inhibited
effect on Complex V activity dipstick signal (Complex V): reduced signal

From patent publication US20050153381A1, “Immunocapture of mitochondrial protein complexes” (priority 2002, published 2005)
